This is an account of results in patent publication US20250002463A1, “NEW SALT FORMS OF AMILORIDE AND ITS DERIVATIVES FOR PHARMACEUTICAL USE” (PSOMRI Holding AB, priority 2021, published 2025).

Some results are limits rather than exact numbers.

Broadly, the solubility is how much of the substance goes into solution per volume.

Data set [1] in a line: Hygroscopicity by Dynamic Vapor Sorption (DVS). The class given is physicochemical. Here is the method:
The hygroscopic behaviour of the salts was evaluated through Dynamic Vapor Sorption (DVS) measurements with an RH profile 40-95-0-40% at 25° C. and a dm/dt of 0.002. The classification of the hygroscopic behaviour is based on the water vapour uptake at 25° C./80% RH in first adsorption cycle of sorption isotherm.

The nature of data set [2]: Polymorphism: solid forms found in salt screen by HT-XRPD. The class given is physicochemical. Conditions: Example 1 salt screen in MeOH, DME, THF. Here is the method: The precipitated solids were analyzed by high throughput X-ray powder diffractometry (HT XRPD). Liquid phases (both solutions and mother liquors) were evaporated at ambient conditions and the residual solids were analyzed by HT XRPD.
The salt screen experiments were carried out in methanol (MeOH), 1,2-dimethoxyethane (DME) and tetrahydrofuran (THF).

Data set [3] is described as follows: Aqueous solubility of salts, Example 1 (aliquot addition; HPLC after 24 h at RT; pH of solutions/mother liquors). Here is the method:
The aqueous solubility of the salts was estimated qualitatively by the solvent aliquot addition method. Aliquots of water up to 500-600 μL were added to approximately 5 mg of salt. The solubility of the free base was also estimated.
The suspensions were let equilibrating at room temperature for 24 h. Afterwards, solids were separated from the liquid phases. The liquid phases were filtered and analyzed by HPLC to determine the solubility. The pH of solutions/mother liquors was also measured.
Suspensions of the two salts were prepared in water with a concentration of 9-10 mg/mL. The mixtures were let equilibrating at RT for 24 h. Afterwards, solids were separated from the liquid phases. The liquid phases were filtered and analyzed by HPLC to determine the solubility. The pH of mother liquors was also measured.

A short description of data set [4]: Physical stability under Accelerated Aging Conditions (AAC, 40° C./75% RH, 2 days), HT-XRPD. The note with it: Example 1; 40° C./75% RH for 2 days.
Method: The solids were separated from the liquid phases by centrifugation, dried overnight under vacuum at 50° C. and analyzed by HT-XRPD. Solvents from the remaining mother liquors and solutions were evaporated under ambient conditions (evaporative crystallization experiments) and the residual solids were analyzed by HT-XRPD.
Slurries of the amorphous solids (GEN9 and GEN16, respectively) were prepared in 15 solvents at room temperature. The suspensions were subjected to a temperature profile, which comprised of three heating and cooling cycles. At the end of the temperature profile, the solids were isolated by centrifugation and dried at ambient conditions and under vacuum at 50° C. Upon completion of all crystallization experiments, all solids were analyzed by HT-XRPD.
Data set [5] in a line: Thermal stability of benzamil in solution (UPLC MS). Conditions: ethanol, ~0.5 mg/mL, 1 h. The class given is physicochemical. Here is the method: The thermal stability of benzamil was evaluated in three solvent systems: acetonitrile:water 1:1, ethanol, and 0.1 M HCl. Solutions of benzamil (˜0.5 mg/mL) were prepared in the selected solvents and split over 3 vials. The solutions were stirred at room temperature, 50° C. and 80° C. for one hour and then analyzed by UPLC MS. The chemical purity of benzamil measured in the solutions incubated at 50° C. and 80° C. for 1 h was compared to that measured initially in the starting solutions.

The nature of data set [6]: Qualitative solubility of benzamil free base in solvents (aliquot addition). The class given is physicochemical.

`CC(=O)O.NC(=NC(=O)c1nc(Cl)c(N)nc1N)NCc1ccccc1` [ACA1] displayed a water vapour uptake in data set [1] (25° C./80% RH, first adsorption cycle) of 0.1%. Further, in data set [1] (based on water vapour uptake at 25° C./80% RH), the “classification of hygroscopic behaviour” value was “non hygroscopic”. Also, in data set [2], the Polymorphism entry is listed as “Yes”. The Water solubility in data set [3] (Example 1, RT, aliquot addition (ranges) or HPLC after 24 h, not in Table 3) lay in the range of 15000 to 19000 µg/mL. Further, in data set [4], the “Physically stable after AAC” value was “physically stable and Yes”.

On to `NC(=NCc1ccccc1)NC(=O)c1nc(Cl)c(N)nc1N` [Benzamil free base, 3,5-diamino-N—(N′-benzylcarbamimidoyl)-6-chloropyrazine-2-carboxamide], for which, in data set [2], the Polymorphism result is “Yes”. In addition, the “chemical stability in solution” value is given as “stable” in data set [5] (50° C.) and “some chemical degradation was observed” in data set [5] (80° C.). Further, in data set [3], the Water solubility entry is reported as “practically insoluble”. Further, in data set [3] (water, thermodynamic from solid), the solubility at 24 h is under 100 µg/mL. Also, the qualitative solubility entry in data set [6] (1,2-dimethoxyethane) is “slightly soluble”; in data set [6] (methanol), “slightly soluble”; in data set [6] (most of the tested solvents (ethanol, water, 1,4-dioxane, acetonitrile, TBME, heptane, ethylacetate, THF), approximately 3 mg/mL), “insoluble”. For the same molecule, in data set [6] (THF suspension, 50° C. for 30 min), the “effect of temperature on solubility” value is on record as “slightly improved the solubility”.
